{
  "source": "patent US20110245528A1",
  "about": "“THERAPEUTIC COMPOUNDS” (priority 2008, published 2011)",
  "key": {"Balb/c mice": {"tested_on": "Balb/c mice", "experiment": "Murine Delayed-type-Hypersensitivity (DTH) Model", "assay_type": "in vivo", "settings": "Mus musculus, iv; ear swelling after DNFB challenge; 0.3 mg/kg intravenously once daily; measured within 24 to 48 hours after ear challenge", "method": "Balb/c mice were sensitized by application of 20 μl of 0.5% of DNFB dissolved in acetone/olive oil to their footpads on day 0 and day 1. On day 5 animals are dosed intravenously with 0.3 mg/kg of test compound (or a negative control). Fifteen minutes later, 10 μl of 0.8% of DNFB dissolved in acetone/olive oil is topically applied externally on the right ear of the animal. As a control, the left ear is treated the same way with vehicle alone (acetone/olive oil).\nThe compounds (controls and test) are administered once daily until the completion of the study.\nWithin 24 to 48 hours after ear challenge, animals are anesthetized with isoflurane and the ear swelling is measured using a micrometer. The micrometer calipers are closed around the top portion of the each external ear until resistance from the ear is felt. Usually, the peak of the ear swelling happens around 48 hours after challenge.\nPercent inhibition is determined in a similar manner as described for the CII model, above."}, "Lewis rats": {"tested_on": "Lewis rats", "experiment": "Rat Collagen-induced Arthritis (rCIA) Model", "assay_type": "in vivo", "settings": "paw swelling, bovine type II collagen-induced arthritis, oral gavage 0.3 mg/kg BID from day 8, day of peak disease, typically day 17", "method": "Two-month-old, female Lewis rats (Charles River Labs) were anesthetized with 3-5% isoflurane and arthritis was induced by intradermal injection of 0.3 ml (100 μl at three different sites) of an emulsion containing 1.5 mg/ml of bovine type II collagen (CII) (Elastin Products Co. Inc. Owensville, Mo.) in Incomplete Freund's Adjuvant (IFA) (Difco Laboratories, Detroit, Mich.) on day 0 at the base of the tail using a 30 gauge needle. A second injection was given on day 6. Control rats were injected with an equal amount of IFA only.\nTest compounds of Formula I are formulated by diluting concentrated ethanol stock solutions with phosphate buffered saline (PBS) and dosed by oral gavage at 0.3 mg/kg twice a day (BID). Dosing was initiated on day 8 and continued to the end of the study, generally day 19 or day 20. Control animals were administered PBS alone.\nThe volume of both hind paws were measured using a water displacement plethysmometer (Ugo Basile, Biological Research Apparatus, Italy), and the onset of arthritis was indicated by increased paw volume, which appears approximately on day 11 post injection. Both paw volumes and body weights are measured throughout the study every 2-3 days. Nineteen to twenty-one days after CII injection, the rats are euthanized with CO2. Blood is collected by cardiac puncture and serum is saved. Both hind ankles are collected in 10% buffered formalin and saved (they can later be processed for histology).\nPercent inhibition values were measured as follows. First, the magnitude of disease effect was calculated by taking the difference in paw swelling between control animals and animals that had not been administered CII (“untreated effect”). Then, the difference is paw swelling between the compound-treated animals and the animals that had not been administered CII was determined (“treated effect”). The difference between the untreated effect and the treated effect is then divided by the […] and multiplied by 100 to arrive at percent inhibition. Percent inhibition reported was from day of “peak” or maximal disease (manifested by maximum paw swelling), typically day 17."}},
  "data": [
    {"smiles": "C#CC[C@@H](O)/C=C/C=C/C#CCCCCC(=O)O", "note": "[Compound 301]", "values": [
      {"measurement": "inhibition in vivo at 0.3 mg/kg", "setting": "Balb/c mice", "result": 15, "unit": "%"},
      {"measurement": "inhibition in vivo at 0.3 mg/kg", "setting": "Lewis rats", "result": 11, "unit": "%"}
    ]},
    {"smiles": "C#CCC/C=C/C=C/C#C[C@@H](O)CCCC(=O)O", "note": "[Compound 302]", "values": [
      {"measurement": "inhibition in vivo at 0.3 mg/kg", "setting": "Balb/c mice", "result": 24, "unit": "%"},
      {"measurement": "inhibition in vivo at 0.3 mg/kg", "setting": "Lewis rats", "result": 37, "unit": "%"}
    ]},
    {"smiles": "O=C(O)CCC[C@H](O)C#C/C=C/C=C/[C@H](O)Cc1ccc(F)cc1", "note": "[Compound 303]", "values": [
      {"measurement": "inhibition in vivo at 0.3 mg/kg", "setting": "Balb/c mice", "result": 21, "unit": "%"},
      {"measurement": "inhibition in vivo at 0.3 mg/kg", "setting": "Lewis rats", "result": 0, "unit": "%"}
    ]},
    {"smiles": "O=C(O)CCC[C@H](O)C#C/C=C/C=C/[C@H](O)CC1CC1", "note": "[Compound 304]", "values": [
      {"measurement": "inhibition in vivo at 0.3 mg/kg", "setting": "Balb/c mice", "result": 20, "unit": "%"},
      {"measurement": "inhibition in vivo at 0.3 mg/kg", "setting": "Lewis rats", "result": 28, "unit": "%"}
    ]},
    {"smiles": "O=C(O)CCC[C@H](O)C#C/C=C/C=C/[C@H](O)CC#Cc1ccc(F)cc1", "note": "[Compound 306]", "values": [
      {"measurement": "inhibition in vivo at 0.3 mg/kg", "setting": "Balb/c mice", "result": 16, "unit": "%"}
    ]},
    {"smiles": "O=C(O)CCC[C@H](O)C#C/C=C/C=C/[C@H](O)CC#Cc1ccc(Cl)c(Cl)c1", "note": "[Compound 314]", "values": [
      {"measurement": "inhibition in vivo at 0.3 mg/kg", "setting": "Balb/c mice", "result": 28, "unit": "%"},
      {"measurement": "inhibition in vivo at 0.3 mg/kg", "setting": "Lewis rats", "result": 27, "unit": "%"}
    ]},
    {"smiles": "O=C(O)CC[C@H](O)C#C/C=C/C=C/[C@H](O)CC1CC1", "note": "[Compound 315]", "values": [
      {"measurement": "inhibition in vivo at 0.3 mg/kg", "setting": "Balb/c mice", "result": 32, "unit": "%"},
      {"measurement": "inhibition in vivo at 0.3 mg/kg", "setting": "Lewis rats", "result": 7, "unit": "%"}
    ]},
    {"smiles": "C#CC[C@@H](O)/C=C/C=C/C#CC(F)(F)CCCC(=O)O", "note": "[Compound 320]", "values": [
      {"measurement": "inhibition in vivo at 0.3 mg/kg", "setting": "Balb/c mice", "result": 35, "unit": "%"},
      {"measurement": "inhibition in vivo at 0.3 mg/kg", "setting": "Lewis rats", "result": 18, "unit": "%"}
    ]},
    {"smiles": "C#CC[C@@H](O)/C=C/C=C/[C@@H]1C[C@@H]1[C@@H](O)CCCC(=O)O", "note": "[Compound 321]", "values": [
      {"measurement": "inhibition in vivo at 0.3 mg/kg", "setting": "Balb/c mice", "result": 32, "unit": "%"},
      {"measurement": "inhibition in vivo at 0.3 mg/kg", "setting": "Lewis rats", "result": 10, "unit": "%"}
    ]},
    {"smiles": "C#CC[C@@H](O)/C=C/C=C/C#C[C@H](O)CCCC(=O)O", "note": "[Compound 323]", "values": [
      {"measurement": "inhibition in vivo at 0.3 mg/kg", "setting": "Balb/c mice", "result": 46, "unit": "%"},
      {"measurement": "inhibition in vivo at 0.3 mg/kg", "setting": "Lewis rats", "result": 38, "unit": "%"}
    ]}
  ]
}
